Measured values published in patent US20060166957A1, “Methods of treating obesity and related disorders using tellurium selenium compounds” (priority 2003, published 2006).
Where two headings read alike, the source gives them in different places.

Experiments:
ob/ob mice = test: AS101 in drinking water of ob/ob mice in metabolic cages: body weight, food intake, blood glucose; format: in vivo
Protocol: Female ob/ob mice (8 weeks old) were placed in metabolic cages and were given free drinking water and chow. After 48 h, one group of 3 mice (the Control group) continued to receive water and chow. A second group of 3 mice received drinking water containing AS 101 (7 mg/L) in addition to the standard chow. The experiment was continued for 18 days and body weights were measured daily. On the average the mice consumed about 1.5 ml of water per 24 h, corresponding to 10 microgram AS101 per mouse per day. This value corresponds to 0.25 mg/kg body weight per 24 h.
On the average, food consumption was reduced by 26±7% (p<0.02, n=16, FIG. 2).
On the last day of treatment, tail blood was withdrawn and blood glucose was determined in three control mice and three mice of the AS101 group.

[1] = tested on: liver tissue of ob/ob mice; test: Microscopic examination of liver tissue of ob/ob mice after 18 days of AS101 treatment; format: in vivo; settings: 18 days AS101 treatment, vs control mice, FIG. 4
Description: Following 18 days treatment of the ob/ob mice with AS101 as described in Example 1, the animals were sacrificed. Samples of liver tissue were taken, fixed with formaldehyde and tissue slices were examined microscopically (FIG. 4).

[2] = tested on: diet-induced obese C57BL/6 mice; test: Body weight of diet-induced obese C57BL/6 mice injected daily with AS101; format: in vivo
Protocol: Since the obesity of ob/ob mice is of genetic origin, whereas obesity among human populations is largely due to excess eating over energy expenditure, the effect of AS101 on body weight was studied in diet-induced obese mice. Female mice were fed for 10 weeks with a high fat diet, resulting in moderate obesity (average weight 37 g). Mice were placed in metabolic cages and injected daily with either saline (Control group, 3 mice) or AS 101 (0.5 mg/kg body weight in saline, AS101 group, 3 mice). High fat diet was continued and the body weight was determined daily. […] Therefore, AS101 is an effective medicament for the treatment of diet-induced obesity.

[3] = tested on: Swiss 3T3-F442A murine pre-adipocytes; test: Differentiation of pre-adipocytes into mature adipocytes, oil red staining; format: cell-based; settings: AS101 0.2 micrograms/ml, six days in DMEM with 10% FBS, oil red stain, FIG. 6
Protocol: To gain insight on the mechanism by which AS101 affects the adipose tissue, its effect was studied on an in-vitro model of differentiation of pre-adipocytes into mature adipocytes. It should be clarified here that adipocytes are fully differentiated cells. […] Besides increase in cell volume, the only way to gain weight in vivo is by generating new adipocytes from pre-adipocytes by differentiation. Swiss 3T3-F442A murine pre-adipocytes were grown in DMEM (GIBCO, USA) with 10% calf serum. To induce differentiation into mature adipocytes, confluent cell cultures were maintained in DMEM supplemented with 10% fetal bovine serum (FBS) for six days, either in the presence or in the absence of AS101 (0.2 micrograms/ml). The cultures were then stained with oil red, which specifically stains the fat droplets within the cells.

6-week-old mice = settings: cited from earlier work

Q: Which body weight gain (ob/ob mice; female ob/ob mice, AS101 7 mg/L in drinking water (0.25 mg/kg body weight per 24 h), 18 days, vs Control group, FIG. 1) does the source give for `Cl[TeH]1(Cl)(Cl)OCCO1` [AS101, ammonium trichloro(dioxoethylene-O,O′)tellurate] here?
A: did not gain weight significantly

Q: What about the “reduction of food consumption, on the average” value (ob/ob mice; female ob/ob mice, AS101 7 mg/L in drinking water, daily food consumption, p<0.02, n=16, FIG. 2) of the same compound?
A: 26±7%

Q: And the blood glucose (ob/ob mice; ob/ob mice, tail blood on the last day of treatment (18 days), AS101 7 mg/L in drinking water, FIG. 3)?
A: statistically significant (p<0.05) reduction

Q: What about the “number and size of adipocytes in liver tissue” value [1] of the same compound?
A: extensive reduction in the number of adipocytes and in their size

Q: What about the body weight ([2]; female mice on high fat diet, AS101 0.5 mg/kg body weight in saline injected daily, vs saline control, FIG. 5) of the same compound?
A: reduced significantly and continued to drop through the entire study

Q: And the food intake ([2]; normal mice rendered obese by high-fat diet, AS101 by daily injections)?
A: reduction of food intake

Q: And the “differentiation of pre-adipocytes into mature adipocytes (fat droplets)” value [3]?
A: inhibited the differentiation

Q: What about the LD50 (6-week-old mice) of the same compound?
A: 300 μg/25 g of body weight

Q: What about the LD50 (6-week-old mice; same value re-expressed) of the same compound?
A: 12 mg/kg body weight
